Measured values from US8697385B1, “Protein controlling synthesis of collagen and associated methods” (Florida State University Research Foundation, Inc., priority 2009, dated 2014).

Experiments:
[1] = test system: LARP6 and nonmuscle myosin; assay: Coimmunoprecipitation of nonmuscle myosin IIB with HA-tagged LARP6; type: cell-based, human; conditions: lung fibroblasts; ML-7-treated vs control cells
Procedure: (§1) ML-7, blebbistatin, cytochalasin B, puromycin, and cycloheximide were purchased from Sigma. ML-7 was used at 40 μM, blebbistatin was used at 100 μM, and cytochalasin B was used at 20 μM. Cells were incubated with the drugs for 16 h before analysis. Puromycin (200 μg/ml) and cycloheximide (100 μg/ml) were added to the cells for 2 h. Human lung fibroblasts have been described previously.16 Scleroderma fibroblasts were purchased from the European Collection of Cell Cultures (cell line BM0070) and derived from the skin of a scleroderma patient. MEFs were derived from knock-in mice in which the 5′SL of the collagen α1(I) gene has been mutated (Parsons et al., submitted). Several independent cell isolates were used throughout the study. All cells were cultured in Dulbecco's modified Eagle's medium supplemented with 10% fetal bovine serum for up to 10 passages. Plasmid constructs and adenovirus preparation. […] [^32P]dCTP was included in the PCR step to label the products, which were resolved on sequencing gels, as described previously.^8,31,49,50 When RNA from polysomal fractions was analyzed, an equal aliquot of each fraction was used. […]
One of the roles of nonmuscle myosin filaments may be to present collagen mRNAs to ribosomes. Therefore, we assessed if the association of collagen mRNAs with nonmuscle myosin is dependent on intact polysomes. […]

[2] = test system: nonmuscle myosin filaments; assay: Immunostaining of nonmuscle myosin IIB filaments in lung fibroblasts; type: cell-based; conditions: human lung fibroblasts; ML-7 40 μM 16 h; untreated cells show prominent filaments
Procedure: as §1, with “passages.” for “passages. Plasmid constructs and adenovirus preparation.”
Protein concentration was estimated by the Bradford assay, with bovine serum albumin as standard.^51 Western blot analyses of cellular proteins were performed using 50 μg of protein. […] The medium was collected, and an aliquot was analyzed directly by Western blot analysis. […]

O=S(=O)(c1cccc2c(I)cccc12)N1CCCNCC1 [ML-7]
myosin IIB pulled down with LARP6 [1]: significantly less | myosin IIB immunostaining (filaments) [2]: myosin staining is confined around the nucleus
